Measurements: article PMC4979516, “Quinazoline-based tricyclic compounds that regulate programmed cell death, induce neuronal differentiation, and are curative in animal models for excitotoxicity and hereditary brain disease” (Cell Death Discovery, 2015)
“And” between values parts separate entries of the source, which are not always exact repeats. Identical values can stand only once. “Also recorded” adds a separate entry of the source.

Tests used:
[1] = tested on: PC12 cells; experiment: Neuronal differentiation of PC12 cells, strain not specified; format: cell-based, rat; conditions: agent by itself; MGV-1 50 μM
Method: For our newly developed differentiation method by MGV-1 in combination with glutamate, PC12 cells were plated onto poly-L-lysine coated culture plates and Petri dishes at a relatively low density (5.2×10^3 cells/cm^2 for six-well plates and 3.6×10^3 cells/cm^2 for Petri dishes), in DMEM medium containing 8% heat-inactivated FBS and 8% horse serum. […] Exposure to vehicle alone (culture medium with 1% of ethanol) was used as the control.
The major and determining indication of neural differentiation of PC12 cells is neurite development.[23],[80] […] The number of differentiated cells was determined by visual examination of the captured fields. In particular, a line was drafted at half height of the image and the cell bodies crossed by the line were further analyzed regarding differentiation. […] Cells with at least one identifiable neurite with a length at least equal to the cell body diameter were scored, and their number expressed as a percentage of the total number of cells crossed by said line. In addition, for each of these cells, the length of the longest neurite was determined (using AxioVision Image software, Zeiss). […]

[2] = tested on: U118MG cells; experiment: LDH cytotoxicity assay, glutamate-induced cell death of U118MG cells; conditions: 35 mM glutamate
Method: (1) For U118MG cells, glutamate at a concentration of 35 mM was applied with or without MGV-1. As discussed, glutamate levels in normal healthy brain tissue can average 15 mM, and these levels can be doubled in diseased brain tissue, whereas in cell organelles glutamate levels can be as high as 250 mM (as discussed). […] In more detail, U118MG cells were seeded, 2×10^5 cells per well of 6-well plates and 6×10^3 cells per well of 96-well plates. Twenty-four hours after seeding, U118MG cells were pretreated with MGV-1 (or one of the other compounds) at various concentrations from 0.1 nM–100 μM. Twenty-four hours after the pretreatment, the cells were exposed to 35 mM of glutamate. […] The negative control was vehicle, that is, ethanol with a final concentration of 1%. […] The positive control was exposure to 35 mM of glutamate alone (with 200 μM of glycine).
Wells of 96-well plates were with 6000 cells per well and treated according the protocol presented above. We used the Cytotoxicity Detection Kit (LDH) (Roche Pharmacuticals) according to the manufacturer’s instructions. When cell plasma membranes are damaged, the cytoplasmic enzyme LDH is released into the medium. The amount of formazan formed is proportional to the amount of LDH released.[77] The resulting color intensity is proportional to the number of damaged cells. Absorbance at 492 nm with reference at 690 nm was measured with the Spectrophotometer Zenyth 200 (Anthos) and the results were calculated and normalized according to the formula presented by the manufacturer.

[3] = biological target: T1, 18 kDa translocator protein (TSPO) (Rattus norvegicus, UniProt P16257); experiment: TSPO binding, displacement of [3H]PK 11195 in rat kidney membranes
T1 construct: 400 μl of homogenized rat kidney membranes (5 mg of homogenate/ml); from tissue; host or cells: rat kidney (homogenized membranes)
Method: After incubation for 60 min at 4 °C, samples were filtered under vacuum over Whatman GF/C filters and washed three times with 5 ml of 50 mM Tris-HCl buffer, pH 7.4. The filters were incubated in CytoScint (MP Biomedicals) and radioactivity was measured after 12 h with a 1600 CA Tri-Carb liquid scintillation analyzer (Packard). Inhibitory constant (Ki) values were calculated by the equation Ki=IC50/(1+C/Kd), where C=[^3H]

[4] = tested on: PC12 cells; experiment: Cell death of PC12 cells, glutamate with or without MGV-1 (LDH); format: cell-based, rat
Method: (2) For PC12 cells (as for U118MG cells), dose-response assays of the lethal effects of glutamate on PC12 cells established 35 mM as an optimal concentration for glutamate for induction of LDH activity in the medium in the range of 20–40% as compared with the effect of the positive control, 1% Triton X-100, the latter which is defined as causing 100% of LDH release in the medium.

T1 sequence (P16257 whole entry): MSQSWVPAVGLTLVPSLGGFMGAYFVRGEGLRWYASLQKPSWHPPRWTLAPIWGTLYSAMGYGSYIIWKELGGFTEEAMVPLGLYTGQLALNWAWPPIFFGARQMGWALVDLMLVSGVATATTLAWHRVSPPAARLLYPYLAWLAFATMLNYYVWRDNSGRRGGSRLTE

Q: Which “Neuronal differentiation of PC12 cells (neurite outgrowth)” value [1] does the source give for `CN(C)C(=O)Oc1nc(-c2ccccc2)nc2ccccc12` [MGV-1, 2-phenylquinazolin-4-yl dimethylcarbamate] here?
A: very effective in inducing extensive neuronal differentiation; also recorded: more effective than NGF and glutamate by themselves

Q: What about the “Protection against glutamate-induced cell death (LDH)” value ([2]; compound 10-100 μM, 24 h pretreatment) of the same compound?
A: protect against lethal effects of glutamate; also recorded: prevented cell death induction

Q: And the “Most effective concentration for protection against cell death” value ([2]; tested 0.1 nM-100 μM)?
A: 25 µM and 50 µM

Q: And the Ki [3]?
A: 825 ± 315 nM

Q: What about the “Cell death of PC12 cells by the compound by itself” value ([4]; 100 μM, no glutamate) of the same compound?
A: can induce cell death

Q: And the “Enhancement of cell death induction by glutamate” value ([4]; PC12, 50 μM MGV-1, 35 mM glutamate)?
A: threefold

Q: What about the “Optimal concentration as enhancer of cell death induced by glutamate” value ([4]; PC12, 35 mM glutamate, tested 0.1 nM-100 μM) of the same compound?
A: 50 µM
